One block for each compound: values may come before it.
What was measured:
[1] = The toxicity was evaluated against KB cells using podophyllotoxin (ED50 0.2 nM) as a standard; assay type: functional; details: Homo sapiens, read-out: ED50 (the source's name)
[2] = test system: Plasmodium falciparum; experiment: In vitro inhibitory activity against Plasmodium falciparum; assay type: functional, organism-based
[3] = test system: Trypanosoma cruzi; experiment: (§1) In vitro Trypanosoma cruzi (TC); assay type: functional; details: read-out: ED50 (the source's name)
[4] = test system: Trypanosoma cruzi; experiment: as §1; assay type: functional, organism-based
[5] = The toxicity was evaluated against KB cells; assay type: functional; details: Homo sapiens, read-out: ED50 (the source's name)

SMILES: CCCC(=O)Oc1c(OC)c(OC)cc2c1C(=O)[C@]1(OC)C=C[C@H]2N(c2ccccc2)O1
EC50 [1]: 3.2 µM
IC50 [2]: 3.9 µM
EC50 [3]: > 68.3 µM

SMILES: COc1cc2c(c(OC(=O)c3ccc(F)cc3)c1OC)C(=O)[C@]1(OC)C=C[C@H]2N(c2ccccc2)O1
EC50 [1]: 6.5 µM
IC50 [2]: 7.5 µM
EC50 [3]: 9.2 µM

SMILES: COc1ccc(C(=O)Oc2c(OC)c(OC)cc3c2C(=O)[C@]2(OC)C=C[C@H]3N(c3ccccc3)O2)cc1
EC50 [1]: 13.3 µM
IC50 [2]: 6.6 µM
EC50 [3]: > 59.6 µM

SMILES: COc1cc2c(c(OC)c1OC)C(=O)[C@]1(OC)C=C[C@H]2N(c2ccccc2)O1
EC50 [1]: < 0.8 µM
IC50 [2]: 8.9 µM
EC50 [3]: 65.3 µM

SMILES: COc1cc2c(c(O)c1OC)C(=O)[C@]1(OC)C=C[C@H]2N(c2ccccc2)O1
EC50 [1]: < 0.8 µM
IC50 [2]: 5.4 µM
EC50 [3]: 4.3 µM

SMILES: COc1cc2c(c(OC(=O)c3ccccc3)c1OC)C(=O)[C@]1(OC)C=C[C@H]2N(c2ccccc2)O1
EC50 [1]: 11.8 µM
IC50 [2]: 3.4 µM
EC50 [3]: > 63.4 µM

SMILES: COc1cc2c(c(OC(=O)COC(C)=O)c1OC)C(=O)[C@]1(OC)C=C[C@H]2N(c2ccccc2)O1
EC50 [1]: 128 µM
IC50 [2]: 3.2 µM
EC50 [3]: > 63.9 µM

SMILES: COc1cc2c(c(OC(=O)c3ccc(Cl)cc3)c1OC)C(=O)[C@]1(OC)C=C[C@H]2N(c2ccccc2)O1
EC50 [1]: 29.1 µM
IC50 [2]: > 59 µM
EC50 [3]: > 59 µM

SMILES: CCC(=O)Oc1c(OC)c(OC)cc2c1C(=O)[C@]1(OC)C=C[C@H]2N(c2ccccc2)O1
EC50 [1]: < 0.7 µM
IC50 [2]: 6.6 µM
IC50 [4]: > 70.5 µM

SMILES: COc1cc2c(c(OC(C)=O)c1OC)C(=O)[C@]1(OC)C=C[C@H]2N(c2ccccc2)O1
EC50 [1]: 6.3 µM
IC50 [2]: 5.3 µM
IC50 [4]: 23.8 µM

SMILES: COc1cc2c(c(OC(=O)c3ccccc3F)c1OC)C(=O)[C@]1(OC)C=C[C@H]2N(c2ccccc2)O1
EC50 [1]: 7.7 µM
IC50 [2]: 6.3 µM
EC50 [3]: > 61 µM

SMILES: COc1cc2c(c(OC(=O)CN3C(=O)c4ccccc4C3=O)c1OC)C(=O)[C@]1(OC)C=C[C@H]2N(c2ccccc2)O1
EC50 [1]: 89.8 µM
IC50 [2]: 6.1 µM
EC50 [3]: 11.9 µM

EC50 [3]: 7.1 µM
SMILES: O=C(Cn1ccnc1[N+](=O)[O-])NCc1ccccc1 [BENZNIDAZOLE]

SMILES: COc1cc([C@@H]2c3cc4c(cc3[C@H](O)[C@H]3COC(=O)[C@H]23)OCO4)cc(OC)c1OC [PODOFILOX]
EC50 [5]: 0.0002 µM

From ChEMBL document CHEMBL1134140, “Design, synthesis, and biological evaluation of a series of simple and novel potential antimalarial compounds” (Bioorg Med Chem Lett, 2001)
